Test systems include ACHN renal; A498 renal; HCC-2998 colon; PC-3 prostate; HCT-116 colon; HOP-62 NSCLC; MDA-N; UACC-62 melanoma; HCT-15 colon; MOLT-4 leukemia.
What all share (assay): NCI-60 cell line screen, 48 h

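Five compound concentrations were applied to cells in 96-well plates for 48 hours; endpoints were derived by simple linear interpolation of the resulting dose-response curve. At the GI50, growth is halved. TGI marks complete inhibition of growth.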

Consider `COCOC1/C=C/CCCCC(=O)C(C)C#CC1` (stereo unspecified), for which the TGI amounted to 19.9 µM in the experiment with ACHN renal; 24.6 µM in the experiment on A498 renal; 20.2 µM in the experiment with HCC-2998 colon; 24 µM in the experiment with PC-3 prostate; 3.34 µM in the experiment with HCT-116 colon; 33.9 µM in the experiment on HOP-62 NSCLC. The TGI came out at 27 µM in the experiment with MDA-N, 15.8 µM in the experiment on UACC-62 melanoma, 7.11 µM with HCT-15 colon and 5.64 µM with MOLT-4 leukemia.
Take `N=c1oc2ccccc2cc1C(=O)NC12CC3CC(CC(C3)C1)C2`: the TGI was 31.4 µM in the experiment on ACHN renal; greater than 82.1 µM with A498 renal; 28.7 µM in the experiment with HCC-2998 colon; greater than 68.9 µM in the experiment on PC-3 prostate; 71.1 µM in the experiment with HCT-116 colon; greater than 83.7 µM in the experiment on HOP-62 NSCLC. In addition, the TGI in the experiment with MDA-N is greater than 100 µM; with UACC-62 melanoma, 62.6 µM; in the experiment with HCT-15 colon, 67.5 µM; with MOLT-4 leukemia, 10.2 µM.
`O=c1[nH]c(=O)n(C2COC(CO)C2O)cc1F` (stereo unspecified): the TGI in the experiment on ACHN renal, with A498 renal, in the experiment with HCC-2998 colon, in the experiment with PC-3 prostate, with HCT-116 colon and in the experiment with HOP-62 NSCLC was greater than 100 µM in each case. Moreover, the TGI in the experiment on MDA-N, in the experiment with UACC-62 melanoma, in the experiment on HCT-15 colon and in the experiment on MOLT-4 leukemia was greater than 100 µM each time.
For `CON(C)C(=O)C(C)N(Cc1ccccc1)Cc1ccccc1` (stereo unspecified), the TGI in the experiment with ACHN renal, in the experiment on A498 renal, with HCC-2998 colon, with PC-3 prostate, in the experiment with HCT-116 colon and in the experiment on HOP-62 NSCLC was greater than 100 µM each time. The TGI with MDA-N, in the experiment with UACC-62 melanoma, with HCT-15 colon and in the experiment on MOLT-4 leukemia was greater than 100 µM throughout.
As for `CC1=C/C(=N\NC(N)=S)C(C(O)(C(F)(F)F)C(F)(F)F)C(C)(C)C1` (stereo unspecified), the TGI in the experiment with ACHN renal, in the experiment on A498 renal, in the experiment with HCC-2998 colon, in the experiment with PC-3 prostate, with HCT-116 colon and in the experiment with HOP-62 NSCLC was greater than 10 µM each time. In addition, the TGI in the experiment on MDA-N, in the experiment on UACC-62 melanoma, in the experiment with HCT-15 colon and in the experiment on MOLT-4 leukemia was greater than 10 µM in each case.
On to `COc1ccc(NC(=S)c2ccc(CN3CCCCC3)s2)cc1`, for which the TGI in the experiment on ACHN renal is greater than 100 µM; with A498 renal it was 31.5 µM; with HCC-2998 colon it was 32.3 µM; with PC-3 prostate, 62.2 µM; with HCT-116 colon, 35.6 µM; in the experiment with HOP-62 NSCLC, 52.7 µM. Further, the TGI with MDA-N amounted to 36.7 µM; in the experiment on UACC-62 melanoma, 32.8 µM; in the experiment on HCT-15 colon it was 26.9 µM; in the experiment on MOLT-4 leukemia, 61.9 µM.
For `CCOC(=O)CCC(NC(=O)C(N)Cc1ccc(N(CCCl)CCCl)cc1)C(=O)OCC` (stereo unspecified), the TGI in the experiment with ACHN renal was 0.692 µM; in the experiment on A498 renal it was greater than 100 µM; with HCC-2998 colon, 2.23 µM; in the experiment on PC-3 prostate, 7.9 µM; in the experiment with HCT-116 colon, 3.54 µM; in the experiment with HOP-62 NSCLC, 7.9 µM. The TGI was 4.98 µM in the experiment on MDA-N, 1.4 µM in the experiment on UACC-62 melanoma, 1.93 µM in the experiment on HCT-15 colon and 1.99 µM in the experiment with MOLT-4 leukemia.
On to `O=C1C(Br)=C(Br)C(=O)c2ccc(=O)ccc21`, for which the TGI in the experiment with ACHN renal is 33.8 µM; in the experiment on A498 renal, greater than 100 µM; in the experiment on HCC-2998 colon, greater than 100 µM; in the experiment with PC-3 prostate, greater than 100 µM; in the experiment with HCT-116 colon it was 39.1 µM; with HOP-62 NSCLC it was greater than 79.2 µM. Moreover, the TGI is 44.8 µM in the experiment on MDA-N, 39.4 µM with UACC-62 melanoma, 38.7 µM with HCT-15 colon and 23.5 µM in the experiment on MOLT-4 leukemia.
Consider `COc1ccc2oc3c(C)cc4c(OC)nnc(OC)c4c3c2c1`, for which the TGI is greater than 100 µM in the experiment on ACHN renal; greater than 100 µM with A498 renal; greater than 100 µM in the experiment with HCC-2998 colon; greater than 100 µM in the experiment on PC-3 prostate; 6.55 µM with HCT-116 colon; greater than 100 µM in the experiment on HOP-62 NSCLC. Further, the TGI in the experiment with MDA-N was greater than 100 µM; with UACC-62 melanoma, greater than 100 µM; in the experiment with HCT-15 colon, 63.9 µM; in the experiment with MOLT-4 leukemia, greater than 100 µM.
As for `C[N+]12C=CC=C1C(N1CCCC1)c1scc(-c3ccc(Br)cc3)c12` (stereo unspecified), the TGI was greater than 100 µM in the experiment with ACHN renal; greater than 100 µM in the experiment with A498 renal; 39.9 µM with HCC-2998 colon; 99.2 µM in the experiment on PC-3 prostate; greater than 100 µM in the experiment on HCT-116 colon; 98.2 µM with HOP-62 NSCLC. Also, the TGI is 98.2 µM in the experiment with MDA-N, 80.3 µM in the experiment on UACC-62 melanoma, greater than 100 µM in the experiment with HCT-15 colon and greater than 65.3 µM in the experiment on MOLT-4 leukemia.
With `COc1ccccc1CC(=O)C(O)(C(F)(F)F)C(F)(F)F`, the TGI in the experiment on ACHN renal, in the experiment with A498 renal, in the experiment with HCC-2998 colon, in the experiment with PC-3 prostate, in the experiment on HCT-116 colon and in the experiment with HOP-62 NSCLC was greater than 100 µM each time. For the same compound, the TGI with MDA-N, with UACC-62 melanoma, with HCT-15 colon and in the experiment with MOLT-4 leukemia was greater than 100 µM throughout.
As for `O=C(O)C1C2c3ccccc3C(c3ccccc32)C1C(=O)NCC1CC1` (stereo unspecified), the TGI is greater than 100 µM in the experiment with ACHN renal; greater than 100 µM in the experiment with A498 renal; 55.1 µM in the experiment with HCC-2998 colon; greater than 100 µM with PC-3 prostate; greater than 100 µM in the experiment on HCT-116 colon; greater than 100 µM with HOP-62 NSCLC. Also, the TGI in the experiment on MDA-N, in the experiment with UACC-62 melanoma, in the experiment with HCT-15 colon and with MOLT-4 leukemia was greater than 100 µM throughout.
`Cc1ccc(S(=O)(=O)N2C3C=CC(C3)[C@@H]2C(Cl)(Cl)Cl)cc1` (stereo partly specified): the TGI in the experiment on ACHN renal was 53.1 µM; with A498 renal, 47.5 µM; in the experiment with HCC-2998 colon, 48.7 µM; in the experiment with PC-3 prostate, greater than 70.3 µM; with HCT-116 colon it was 24.7 µM; in the experiment with HOP-62 NSCLC, 41.5 µM. In addition, the TGI in the experiment with MDA-N amounted to 86.9 µM; in the experiment on UACC-62 melanoma it was 35.2 µM; in the experiment on HCT-15 colon, 62.6 µM; with MOLT-4 leukemia, 75 µM. Besides, the GI50 in the experiment with A498 renal was 11.8 µM.

Values taken from PubChem BioAssay (NCI).
